In article PMC11202142, “Succinimide Derivatives as Acetylcholinesterase Inhibitors—In Silico and In Vitro Studies” (Current Issues in Molecular Biology, 2024):

Experiments:
[1] = target: acetylcholinesterase (AChE) (Homo sapiens, UniProt P22303); assay: Ellman spectrophotometric assay, Lineweaver-Burk kinetics; format: biochemical
[2] = substrate: CC(=O)SCC[N+](C)(C)C; assay: Ellman assay, Km from Lineweaver-Burk plot without inhibitor; format: biochemical, Homo sapiens

CCC12C(=O)C(CC)(C(c3ccccc3)=C1c1ccccc1)C1C(=O)NC(=O)C12 (stereo not shown) [I, diethyl (I) succinimide derivative]
IC50 [1]: 31 ± 3 µM

CC12C(=O)C(C)(C(c3ccccc3)=C1c1ccccc1)C1C(=O)NC(=O)C12 (stereo not shown) [II, dimethyl (II) succinimide derivative]
IC50 [1]: 29 ± 2 µM

B1: acetylcholinesterase (AChE) (Homo sapiens) (protein)
chain: EGREDAELLVTVRGGRLRGIRLKTPGGPVSAFLGIPFAEPPMGPRRFLPPEPKQPWSGVVDATTFQSVCYQYVDTLYPGFEGTEMWNPNRELSEDCLYLNVWTPYPRPTSPTPVLVWIYGGGFYSGASSLDVYDGRFLVQAERTVLVSMNYRVGAFGFLALPGSREAPGNVGLLDQRLALQWVQENVAAFGGDPTSVTLFGESAGAASVGMHLLSPPSRGLFHRAVLQSGAPNGPWATVGMGEARRRATQLAHLVGCPPGGTGGNDTELVACLRTRPAQVLVNHEWHVLPQESVFRFSFVPVVDGDFLSDTPEALINAGDFHGLQVLVGVVKDEGSYFLVYGAPGFSKDNESLISRAEFLAGVRVGVPQVSDLAAEAVVLHYTDWLHPEDPARLREALSDVVGDHNVVCPVAQLAGRLAAQGARVYAYVFEHRASTLSWPLWMGVPHGYEIEFIFGIPLDPSRNYTAEEKIFAQRLMRYWANFARTGDPNEPRDPKAPQWPPYTAGAQQYVSLDLRPLEVRRGLRAQACAFWNRFLPKLLSATDTLDEAERQWKAEFHRWSSYMVHWKNQFDHYSKQDRCSDL
Km [2]: 960 µM
Vmax [2]: 630 µM/min
